# Literature values as cited in PubChem BioAssay AID1259409 (Chemical Carcinogenesis Research Information System (CCRIS), 2018).
# Tested on: rodent chemically induced tumor inhibition, incidence and multiplicity
# Experiment: CCRIS tumor inhibitor studies
compound,measurement,setting,value
Cc1cc(C(C)(C)C)c(O)c(C(C)(C)C)c1,"tumour outcome (control, treated, inhibition, significance)","Carcinogen: 2-ACETYLAMINOFLUORENE, 53-96-3, Dose [Inhibitor]: 0, 3000 PPM IN DIET CONCURRENTLY WITH CARCINOGEN FOR STUDY DURATION (STUDY DURATION: 76 WK), Route [Inhibitor]: ORAL, Species: RAT, Strain/Sex: F344/MALE, Target Tissue: Type of Lesion: LIVER: HEPATOCELLULAR TUMOR, Dose [Carcinogen]: 50 PPM IN DIET FOR 76 WK","20/20 (100%), 18/18 (100%), 0%, not calculated"
same,outcome,"Carcinogen: 2-ACETYLAMINOFLUORENE, 53-96-3, Dose [Inhibitor]: 0, 6000 PPM IN DIET CONCURRENTLY WITH CARCINOGEN FOR STUDY DURATION (STUDY DURATION: 76 WK), Route [Inhibitor]: ORAL, Species: RAT, Strain/Sex: F344/MALE, Target Tissue: Type of Lesion: LIVER: HEPATOCELLULAR CARCINOMA, Dose [Carcinogen]: 50 PPM IN DIET FOR 76 WK","4.8, 0.7, 85%, p<0.05"
same,"tumour outcome (control, treated, inhibition, significance)","Carcinogen: 2-ACETYLAMINOFLUORENE, 53-96-3, Dose [Inhibitor]: 0, 6000 PPM IN DIET CONCURRENTLY WITH CARCINOGEN FOR STUDY DURATION (STUDY DURATION: 76 WK), Route [Inhibitor]: ORAL, Species: RAT, Strain/Sex: F344/MALE, Target Tissue: Type of Lesion: LIVER: HEPATOCELLULAR TUMOR, Dose [Carcinogen]: 50 PPM IN DIET FOR 76 WK","20/20 (100%), 19/19 (100%), 0%, not calculated"
same,"tumour outcome (control, treated, inhibition, significance)","Carcinogen: 7,12-DIMETHYLBENZ(A)ANTHRACENE, 57-97-6, Dose [Inhibitor]: 0.3% IN DIET FROM WEANING ONWARD (STUDY DURATION: 6 MO AFTER CARCINOGEN ADMINISTRATION), Route [Inhibitor]: ORAL, Species: RAT, Strain/Sex: SPRAGUE-DAWLEY/FEMALE, Target Tissue: Type of Lesion: MAMMARY GLAND: ADENOCARCINOMA, Dose [Carcinogen]: 10 MG/RAT IN 1 ML STRIPPED CORN OIL, SINGLE DOSE ON D 50 FOLLOWING 24 HR FASTING PERIOD, Promoter: NONE USED","100%, 55%, 45%, not calculated"
same,"tumour outcome (control, treated, inhibition, significance)","Carcinogen: 7,12-DIMETHYLBENZ(A)ANTHRACENE, 57-97-6, Dose [Inhibitor]: 2500 MG/KG IN DIET STARTING 1 WK AFTER CARCINOGEN AND CONTINUING FOR 30 WK (STUDY DURATION: 30 WK), Route [Inhibitor]: ORAL, Species: RAT, Strain/Sex: SPRAGUE-DAWLEY/FEMALE, Target Tissue: Type of Lesion: MAMMARY GLAND: TUMOR, Dose [Carcinogen]: 8 MG IN 1 ML SESAME OIL ADMINISTERED ONCE, Promoter: NONE USED","88%, 68%, 23%, not significant"
same,"tumour outcome (control, treated, inhibition, significance)","Carcinogen: 7,12-DIMETHYLBENZ(A)ANTHRACENE, 57-97-6, Dose [Inhibitor]: 5000 MG/KG IN DIET STARTING 1 WK AFTER CARCINOGEN AND CONTINUING FOR 30 WK (STUDY DURATION: 30 WK), Route [Inhibitor]: ORAL, Species: RAT, Strain/Sex: SPRAGUE-DAWLEY/FEMALE, Target Tissue: Type of Lesion: MAMMARY GLAND: TUMOR, Dose [Carcinogen]: 8 MG IN 1 ML SESAME OIL ADMINISTERED ONCE, Promoter: NONE USED","88%, 72%, 18%, not significant"
same,"tumour outcome (control, treated, inhibition, significance)","Carcinogen: 7,12-DIMETHYLBENZ(A)ANTHRACENE, 57-97-6, Dose [Inhibitor]: 5000 MG/KG IN DIET STARTING 2 WK BEFORE UNTIL 1 WK AFTER CARCINOGEN ADMINISTRATION (STUDY DURATION: 32 WK), Route [Inhibitor]: ORAL, Species: RAT, Strain/Sex: SPRAGUE-DAWLEY/FEMALE, Target Tissue: Type of Lesion: MAMMARY GLAND: TUMOR, Dose [Carcinogen]: 8 MG IN 1 ML SESAME OIL ADMINISTERED ONCE, Promoter: NONE USED","88%, 52%, 41%, p<0.01"
same,"tumour outcome (control, treated, inhibition, significance)","Carcinogen: 7,12-DIMETHYLBENZ[A]ANTHRACENE, 57-97-6, Dose [Inhibitor]: 0, 200 MG/KG BW/D FOR 3 WK BEGINNING 2 WK PRIOR TO CARCINOGEN DOSE (STUDY DURATION: 24 WK), Route [Inhibitor]: INTRAPERITONEAL, Species: RAT, Strain/Sex: SPRAGUE-DAWLEY/FEMALE, Target Tissue: Type of Lesion: MAMMARY GLAND: TUMOR, Dose [Carcinogen]: 33.3 MG/KG BW IN 0.25 ML CORN OIL ONCE AT 50 D OF AGE, Promoter: NONE USED","91%, 56%, 38%, not calculated"
same,"tumour outcome (control, treated, inhibition, significance)","Carcinogen: 7,12-DIMETHYLBENZ[A]ANTHRACENE, 57-97-6, Dose [Inhibitor]: 0.3% IN DIET, DAILY BEFORE, SIMULTANEOUS WITH, AND THROUGHOUT THE EXPERIMENT, HIGH POLYUNSATURATED FAT DIET (STUDY DURAT, Route [Inhibitor]: ORAL, Species: RAT, Strain/Sex: SPRAGUE-DAWLEY/FEMALE, Target Tissue: Type of Lesion: MAMMARY GLAND: PARENCHYMAL CARCINOMA, Dose [Carcinogen]: 10 MG IN 1 ML CORN OIL AT 50 D OF AGE ONCE, Promoter: NONE USED","30/30 (100%), 16/30 (53%), 47%, not calculated"
same,"tumour outcome (control, treated, inhibition, significance)","Carcinogen: 7,12-DIMETHYLBENZ[A]ANTHRACENE, 57-97-6, Dose [Inhibitor]: 0.3% IN DIET, DAILY BEFORE, SIMULTANEOUS WITH, AND THROUGHOUT THE EXPERIMENT, HIGH SATURATED FAT DIET (STUDY DURATION: 3, Route [Inhibitor]: ORAL, Species: RAT, Strain/Sex: SPRAGUE-DAWLEY/FEMALE, Target Tissue: Type of Lesion: MAMMARY GLAND: PARENCHYMAL CARCINOMA, Dose [Carcinogen]: 10 MG IN 1 ML CORN OIL AT 50 D OF AGE ONCE, Promoter: NONE USED","23/30 (77%), 9/30 (30%), 60%, not calculated"
same,"tumour outcome (control, treated, inhibition, significance)","Carcinogen: 7,12-DIMETHYLBENZ[A]ANTHRACENE, 57-97-6, Dose [Inhibitor]: 0.3% IN DIET, DAILY BEFORE, SIMULTANEOUS WITH, AND THROUGHOUT THE EXPERIMENT, LOW FAT DIET (STUDY DURATION: 32 WK), Route [Inhibitor]: ORAL, Species: RAT, Strain/Sex: SPRAGUE-DAWLEY/FEMALE, Target Tissue: Type of Lesion: MAMMARY GLAND: PARENCHYMAL CARCINOMA, Dose [Carcinogen]: 10 MG IN 1 ML CORN OIL AT 50 D OF AGE ONCE, Promoter: NONE USED","13/30 (43%), 10/30 (33%), 23%, not calculated"
same,"tumour outcome (control, treated, inhibition, significance)","Carcinogen: 7,12-DIMETHYLBENZ[A]ANTHRACENE, 57-97-6, Dose [Inhibitor]: 0.3% IN HIGH POLYUNSATURATED FAT DIET DAILY STARTING 29 D BEFORE CARCINOGEN TREATMENT AND CONTINUING FOR THE DURATION OF, Route [Inhibitor]: ORAL, Species: RAT, Strain/Sex: SPRAGUE-DAWLEY/FEMALE, Target Tissue: Type of Lesion: MAMMARY GLAND: ADENOCARCINOMA, Dose [Carcinogen]: 10 MG IN 1 ML STRIPPED CORN OIL ONCE AT AGE 50 D, Promoter: NONE USED","100%, 55%, 45%, not calculated"
same,"tumour outcome (control, treated, inhibition, significance)","Carcinogen: 7,12-DIMETHYLBENZ[A]ANTHRACENE, 57-97-6, Dose [Inhibitor]: 0.3% IN HIGH SATURATED FAT DIET DAILY STARTING 29 D BEFORE CARCINOGEN TREATMENT AND CONTINUING FOR THE DURATION OF THE S, Route [Inhibitor]: ORAL, Species: RAT, Strain/Sex: SPRAGUE-DAWLEY/FEMALE, Target Tissue: Type of Lesion: MAMMARY GLAND: ADENOCARCINOMA, Dose [Carcinogen]: 10 MG IN 1 ML STRIPPED CORN OIL ONCE AT AGE 50 D, Promoter: NONE USED","65%, 35%, 46%, not calculated"
same,"tumour outcome (control, treated, inhibition, significance)","Carcinogen: 7,12-DIMETHYLBENZ[A]ANTHRACENE, 57-97-6, Dose [Inhibitor]: 0.3% IN LOW FAT DIET DAILY STARTING 29 D BEFORE CARCINOGEN TREATMENT AND CONTINUING FOR THE DURATION OF THE STUDY (STUDY, Route [Inhibitor]: ORAL, Species: RAT, Strain/Sex: SPRAGUE-DAWLEY/FEMALE, Target Tissue: Type of Lesion: MAMMARY GLAND: ADENOCARCINOMA, Dose [Carcinogen]: 10 MG IN 1 ML STRIPPED CORN OIL ONCE AT AGE 50 D, Promoter: NONE USED","35%, 25%, 29%, not calculated"
same,"tumour outcome (control, treated, inhibition, significance)","Carcinogen: 7,12-DIMETHYLBENZ[A]ANTHRACENE, 57-97-6, Dose [Inhibitor]: 1 MG APPLIED ONCE 5 MIN BEFORE DMBA (STUDY DURATION 20 WK), Route [Inhibitor]: DERMAL, Species: MOUSE, Strain/Sex: CD-1/FEMALE, Target Tissue: Type of Lesion: SKIN: PAPILLOMA, Dose [Carcinogen]: 2.56 UG APPLIED ONCE 5 MIN AFTER INHIBITOR, Promoter: 12-O-TETRADECANOYLPHORBOL-13-ACETATE, 16561-29-8","80%, 58%, 28%, not calculated"
